Experimental data published in patent US20070014739A1, “Compositions and methods for controlling biofilms and bacterial infections” (priority 2005, published 2007).

Columns and labels:
[1] = test system: E. coli clinical strain UT189; assay: Inhibition of biofilm formation, crystal violet, 96 well plates; type: cell-based; conditions: Escherichia coli, compared to the controls, read-out: inhibited biofilm formation of the UT189 strain
Method: (§1) Biofilm inhibition experiments were conducted using an assay adapted from the reported protocol described in Pratt and Kolter, 1998, Molecular Microbiology, 30: 285-293; Li et al., 2001, J. Bacteriol., 183: 897-908. E. coli clinical strain UT189 was grown in LB in 96 well plates at room temperature for one or two days without shaking. E. coli laboratory strain JM109 was grown in LB plus 0.2% glucose in 96 well plates at room temperature for one day without shaking. To quantify the biofilm mass, the suspension culture was poured out and the biofilm was washed three times with water. The biofilm was stained with 0.1% crystal violet for 20 minutes. The plates were then washed three times with water. OD reading at 540 nm was measured to quantify the biofilm mass at the bottom of the wells. Then 95% ethanol was added to dissolve the dye at the bottom and on the wall and the OD reading at 540 nm was measured to quantify the total biofilm mass. To study the overall effect of the compounds (3.6 mg/mL in 100% ethanol as stock solution), it was added with the inoculation and a time course of biofilm mass was measured. Appropriate amounts of 100% ethanol were added to each sample to eliminate the effect of solvent. Each condition had 3-4 replicates on each plate and was performed over multiple days.

[2] = test system: E. coli laboratory strain JM109; assay: as above; type: cell-based; conditions: Escherichia coli, JM 109, compared to the controls, read-out: inhibited biofilm formation of the JM109 strain
Method: as §1

[3] = test system: E. coli (ATCC 25922); assay: Antibacterial effect (MIC), NCCLS procedures; type: cell-based; conditions: Escherichia coli, ATCC25922; studied at 64 μg/mL; read-out: MIC (minimal inhibitory concentration)
Method: (§2) Using the appropriate NCCLS procedures, the antibacterial effect of asiatic acid on Haemophilus influenzae (ATCC 10211), E. coli (ATCC 25922), and P. aeruginosa (ATCC 27853) was studied at 64 μg/mL.

[4] = test system: Haemophilus influenzae (ATCC 10211); assay: Antibacterial effect (MIC), NCCLS procedures; type: cell-based; conditions: ATCC10211, studied at 64 μg/mL, read-out: MIC (minimal inhibitory concentration)
Method: as §2

[5] = test system: P. aeruginosa (ATCC 27853); assay: Antibacterial effect (MIC), NCCLS procedures; type: cell-based; conditions: Pseudomonas aeruginosa, ATCC27853; studied at 64 μg/mL; read-out: MIC (minimal inhibitory concentration)
Method: as §2

[6] = test system: P. aeruginosa strain PAO1; assay: Rotating disk reactor (RDR) biofilm test with and without tobramycin, culturable bacteria; type: cell-based, Pseudomonas aeruginosa; conditions: average of three days; for CFU, Test Compound: no tobramycin; for CFU, Tobramycin and Test Compound: then tobramycin 100 μg/ml 2 h
Method: Biofilm formation of P. aeruginosa was evaluated using a standardized biofilm method with a rotating disk reactor (RDR). This method provides a model resembling the formation of biofilms in cystic fibrosis patients. The rotating disk reactor consists of a one-liter glass beaker fitted with a drain spout. The bottom of the vessel contains a magnetically driven rotor with six 1.27 cm diameter coupons constructed from polystyrene. The rotor consists of a star-head magnetic stir bar upon which a disk was affixed to hold the coupons. The vessel with the stir bar was placed on a stir plate and rotated to provide fluid shear. A nutrient solution (AB Trace Medium with 0.3 mM glucose, see Table 3 below for composition) was added through a stopper in the top of the reactor at a flow rate of 5 ml/min. The reactor volume was approximately 180 ml and varied slightly between reactors depending on the placement of the drain spout and the rotational speed of the rotor. At a volume of 180 ml, the residence time of the reactors was 36 minutes. The reactors were operated at room temperature (c.a. 26° C.).
For each test, two RDRs were operated in parallel with one receiving test compound and the other serving as an untreated control. The RDRs were sterilized by autoclave, then filled with sterile medium and inoculated with P. aeruginosa strain PAO1. The reactors were then incubated at room temperature in batch mode (no medium flow) for a period of 24 hours, after which the flow was initiated for a further 24 hour incubation. Test compounds were dissolved in 10 ml ethanol to achieve a concentration of 1.8 mg/ml. After the 48 hours of biofilm development described above, the 10 ml of ethanol containing the test compounds were added to the reactor to achieve a final concentration of approximately 50, 100, or 200 μg/ml. Control reactors received 10 ml of ethanol. The reactors were then incubated for an additional 24 hours in batch (no flow) mode. After this incubation period, the six coupons were removed from each reactor and placed in 12-well polystyrene tissue culture plates with wells containing either 2 ml of a 100 μg/ml tobramycin solution or 2 ml of phosphate-buffered saline (PBS). These plates were incubated at room temperature for two hours. The coupons were then rinsed by three transfers to plates containing 2 ml of fresh PBS. For each two RDR reactors run in parallel, four sets of three coupons were obtained: one set with no test compound treatment and no tobramycin treatment, one set with no test compound treatment and tobramycin treatment, one set treated with a test compound treatment and no tobramycin treatment, and one set treated with a test compound treatment and tobramycin. After rinsing, one coupon of each set of three was stained with a LIVE/DEAD® BacLight™ Bacterial Viability Kit (Molecular Probes, Eugene Oreg.) and imaged using epifluorescent microscopy. The remaining two coupons were placed in 10 ml of PBS and sonicated for five minutes to remove and disperse biofilm cells. The resulting bacterial suspensions were then serially diluted in PBS and plated on tryptic soy agar plates for enumeration of culturable bacteria. The plates were incubated for 24 hours at 37° C. before colony forming units (CFU) were determined.
The results are averages from experiments performed on three separate days for each test compound. The values reported are as loglo CFU.

[7] = test system: S. sobrinus 6715; assay: Biofilm growth inhibition in 1 mL polycarbonate tubes; type: cell-based; conditions: Streptococcus sobrinus, 40 μg/mL

Compound: C[C@H]1[C@H](C)CC[C@]2(C(=O)O)CC[C@]3(C)C(=CC[C@@H]4[C@@]5(C)C[C@@H](O)[C@H](O)[C@@](C)(CO)[C@@H]5CC[C@]43C)[C@H]12 [Asiatic acid]
- inhibition at 4 µg/mL ([1]; 4 ug/ml): ~10%
- inhibition at 8 µg/mL ([1]; 8 ug/ml): ~15%
- inhibition at 16 µg/mL ([1]; 16 ug/ml): ~50%
- inhibition at 32 µg/mL ([1]; 32 ug/ml): ~90%
- inhibition at 5 µg/mL ([2]; 5 ug/ml): ~70%
- inhibition at 10 µg/mL ([2]; 10 ug/ml): ~80%
- MIC [3]: > 64 µg/mL
- MIC [4]: > 64 µg/mL
- MIC [5]: > 64 µg/mL
- CFU, Test Compound ([6]; test compound 50 μg/ml 24 h): 7.7 loglo CFU
- CFU, Tobramycin and Test Compound ([6]; test compound 50 μg/ml 24 h): 5.3 loglo CFU
- CFU, Test Compound ([6]; test compound 100 μg/ml 24 h): 7.7 loglo CFU
- CFU, Tobramycin and Test Compound ([6]; test compound 100 μg/ml 24 h): 5.5 loglo CFU
- CFU, Test Compound ([6]; test compound 200 μg/ml 24 h): 7.5 loglo CFU
- CFU, Tobramycin and Test Compound ([6]; test compound 200 μg/ml 24 h): 5.2 loglo CFU
- inhibition at 40 µg/mL [7]: > 75%
